Entries after “also recorded” stand apart in the source; their conditions may differ.
What was measured:
Notch-1 (NICD) [1] = experiment: NICD nuclear translocation in RIN cells (indirect immunofluorescence, immunoblot of nuclear extracts); format: cell-based, rat; details: for effect on Ex-4-mediated translocation of NICD: H89 10 μM, L-685,458 pretreatment for 2 h
Method: (§1) Islet isolation, cell culture and treatments. Adult rat (Sprague-Dawley) and mouse (C57/BL6) islets were isolated by collagenase P digestion and cultured overnight in M199 medium (5 mM glucose). RIN 1046-38 β-cells were cultured as outlined previously (Wang, et al., Endocrinology, 142:1820-1827 (2001)). Isolated human islets came from David Harlan, Transplant Section, NIDDK. Ex-4, GLP-1, CCK (all used at concentrations previously shown to cause maximum insulin release), Ex and the γ-secretase inhibitor, L-685,458, were obtained from Bachem. H89 was from Calbiochem, insulin was from Sigma. The Jagged peptides, R-JAG […] (SEQ ID NO:1), JAG-1 […] (SEQ ID NO:2), and scrambled control peptide without agonist activity, sc-Jagged […] (Nickoloff, et al., Cell Death Differ, 9842-855 (2002)) (SEQ ID NO:3), were synthesised by New England Peptide Inc.
(§2) Cell extracts, immunoblotting and RT-PCR. Cytosolic and nuclear cell extracts were prepared using the NE-PER Nuclear and Cytoplasmic Extraction Reagents (Pierce) in accordance with the manufacturer's instructions. Whole cell extracts were isolated as described (Wang, et al., Endocrinology, 142:1820-1827 (2001)). Cell extracts were separated by Tris-glycine (10%, 4-12%) PAGE (Invitrogen) and immunoblofted as described (Wang, et al., Endocrinology, 142:1820-1827 (2001)) using the following antibodies: rabbit anti-Notch1 (1:5,000), rabbit anti-IRS2 (1:1,000), both from Upstate Biotechnology, rabbit N-terminal anti-PDX-1 (1:10,000, from Joel Habener (Stanojevic, et al., Endocrinology, 145:2918-2928 (2004)). Total RNA was extracted using Triazol (Invitrogen) according to the manufacturer's instructions. RT-PCR was performed using the Qiagen OneStep RT-PCR kit. See Table 2 for primer sequences and annealing temperatures. Each target gene was amplified over 35 cycles.
(§3) RIN cells were permeabilized in Triton-X (0.1%) on ice and blocked for 1 h at room temperature in 3% BSA and 0.1% Tween in PBS. They were incubated overnight at 4° C. with the primary antibody, washed in PBS and incubated with fluorescent labelled secondary antibody for 1 h, washed and mounted with fluorescence mounting medium (Vector Laboratories). Mouse sections (FIG. 9) for indirect immunofluorescence were antigen-retrieved, processed in the same manner as the cells and stained with anti-Notch-1. Indirect immunofluorescent staining was imaged using a Zeiss LSM-410 inverted microscope. AlexaFluor antibodies (Molecular Probes; Eugene, Oreg.) were excited with the 488-nm line of a krypton-argon laser and recorded at the presence of emission filter BP515-565 nm. The microscope objective was a Zeiss 63×NA 1.4 oil immersion and the confocal pinhole was set to obtain spatial resolution of […] in the horizontal plane and […] in the axial dimension.

γ-secretase = target: T1, γ-secretase (Rattus norvegicus, UniProt P97887); experiment: γ-secretase activity assay (Notch ΔE-GVP / UAS-luciferase reporter) in RIN cells; format: cell-based; details: for effect on Ex-4-activated γ-secretase cleavage / UAS promoter activation: RIN cells transfected with Notch ΔE-GVP
T1 construct: endogenous in cells; host or cells: RIN 1046-38 rat β-cells
Method: Transfections and Luciferase assays. The rat insulin-I promoter linked to the luciferase reporter plasmid pGL3 (Ins-1-luc) was obtained from Michael Freemark (Fleenor and Freemark, Endocrinology, 142:2805-2810 (2001)), and both the Notch ΔE-GVP plasmid and UAS responsive reporter gene construct MH100 were from Johan Lundkvist (Karlstrom, et al., J Biol Chem, 277:6763-6766 (2002)). For the insulin reporter gene assay, RIN cells in 35 mm dishes were co-transfected with 0.8 μg ins-1-luc plasmid and 0.7 μg of pCMV-β-galactosidase using 8 μl of Polyfect (Qiagen). For the γ-secretase activity assay RIN cells in 12 well plates were co-transfected with 30 ng of pCMV-β-galactosidase, 200 ng of MH100, 100 ng Notch ΔE-GVP plasmids for each well using Lipofectamine PLUS (Invitrogen). The transfected cells were allowed to recover for 24-48 h in medium with serum and subsequently incubated in insulin secretion assay buffer (for the insulin promoter assay) or in medium without serum (for the γ-secretase assay) with or without Ex-4 and inhibitors. Ins-1-luc and Notch ΔE-GVP activities were measured using assay system kits from Promega according to the manufacturer's instructions using a Berthord LB 9501 luminometer. The luciferase values were normalized to β-galactosidase measured using the luminometer for lysates from 35 mm dishes and an ELISA plate reader (Spectra Max Plus, Molecular Devices) for lysates from 12 well plates.

C57/BL6 mouse islets = experiment: Immunoblotting for IRS2 and PDX-1 in C57/BL6 mouse islets treated for 8 h; format: cell-based; details: for PDX-1 levels: islets
Method: as §1, §2

RIN 1046-38 β-cells = experiment: Insulin secretion and intracellular insulin in RIN cells (ELISA); format: cell-based, rat; details: for insulin release, R-JAG and Ex-4 together vs either alone: 6 h time point; for total intracellular insulin: 6 h treatment; for insulin release into the medium: time course
Method: (§4) Insulin assays and cell turnover studies. Insulin secretion assays were performed and intracellular insulin was extracted as described (Wang, Y. et al., J. Clin. Invest., 99:2883-2889 (1997)), followed by insulin quantification using an ELISA kit (Crystal Chem). Cells were treated for 8 h as indicated and pulsed with [^3H]thymidine (PerkinElmer Life Sciences) at 37° C., followed by lysis of the cells and [^3H] counting (He, et al., J Biol Chem, 278:27096-27104 (2003)).

Notch-1 (NICD) [2] = experiment: NICD in islet nuclei of wild-type and GLP-1R null mice after intraperitoneal treatment; format: in vivo, mouse; details: fasted, 1 nmol/kg IP
Method: as §3, with “Animal Protocols. Wild-type and GLP-1R −/− mice (Scrocchi, L. A. et al. Nat. Med., 2:1254-1258 (1996)) were injected intraperitoneally with Ex-4 (1 nmol/kg) or glucose (1 g/kg) after overnight fast and their pancreata excised. Animal protocols were approved by the NIA Animal Care and Use Committee. RIN” for “RIN”

RIN cells [3] = experiment: [3H]thymidine uptake (β-cell proliferation) in RIN cells; format: cell-based, rat; details: 8 h treatment
Method: as §4

RIN cells [4] = experiment: RT-PCR and immunoblotting of whole RIN cell extracts (insulin, IRS2, PDX-1, Notch-1); format: cell-based, rat
Method: as §2, with “Each target gene was amplified over 35 cycles.” left out

Rat islets = experiment: Rat islets: real time PCR and intracellular insulin after R-JAG; format: cell-based
Method: Rat islets (80) were pre-incubated for 2 periods of 30 min in the glucose-free buffer in a 37° C. humidified air incubator. […] At the end of the experiment, islets were centrifuged and any residual medium removed and stored −20° C. for quantification of insulin released. The pellet was suspended in ice cold acid-ethanol (500 μl) and homogenized. After centrifugation of the homogenate (1,400 g, 4° C.) the supernatant was collected for measurement of intracellular insulin using the Rat insulin ELISA kit from Crystal Chem. Inc. (Chicago, Ill.). The pellet was lysed with 0.2 ml formic acid and saved at […] for analysis of protein by the Bradford method (Bio-Rad Laboratories, Inc. Richmond, Calif.). A control condition with insulin secretion assay buffer containing just 6 mM glucose was used. Insulin values were normalized to protein content.
Reverse transcription. DNA-free RNA was isolated using the Triazol extraction method (Invitrogen; Carlsbad, Calif.) following the manufacturer's protocol. DNAse I treatment and inactivation, and reverse transcription reaction primed with random sequence oligonucleotides were performed using Ambion instruction manual and Cells-to-cDNA II kits components in the I-Cycler thermocycler from BioRad. As a control, a mock reverse transcription containing all RT reagents except the Reverse Transcriptase, which was substituted with water, was used.
Real Time PCR. Real time PCR reactions were performed using the ABI PRISM™ 7700 Sequence Detection Systems (Applied Biosystems; Valencia, Calif.) and the SYBER Green kit from Applied Biosystems. All PCR reactions were performed in triplicate using the SYBER Green master mix (12.5 μl) from Applied Biosystems, 1 μg of cDNA, 2.5 μl of each 0.5 μM primer and water for a 25 μl reaction. Cycling parameters for amplifications of target genes were (95° C. for 10 min, at 94° C. for 15 seconds, 60° C. for 1 min)×40 cycles. The target gene copy number in unknown samples was quantified by measuring the threshold cycle CT and by using the standard curve to determine the starting copy number. The β-actin gene was an endogenous control. Final results were expressed as n-fold differences relative to untreated controls.

O=S(=O)(NCCNC/C=C/c1ccc(Br)cc1)c1cccc2cnccc12 [H89]
effect on glucose-mediated NICD translocation (Notch-1 (NICD) [1]; RIN cells): prevented
effect on Ex-4-mediated translocation of NICD (Notch-1 (NICD) [1]; RIN cells): diminished
effect on Ex-4-activated γ-secretase cleavage / UAS promoter activation (γ-secretase): greatly diminished; also recorded: abrogated; also recorded: blocked

CC(C)C[C@H](NC(=O)[C@H](Cc1ccccc1)C[C@@H](O)[C@H](Cc1ccccc1)NC(=O)OC(C)(C)C)C(=O)N[C@@H](Cc1ccccc1)C(N)=O [L-685,458]
effect on Ex-4-mediated translocation of NICD (Notch-1 (NICD) [1]; RIN cells): inhibited
effect on Ex-4-activated γ-secretase cleavage / UAS promoter activation (γ-secretase): greatly diminished; also recorded: abrogated; also recorded: blocked
effect on Ex-4-mediated increase in IRS2 levels (C57/BL6 mouse islets; C57/BL6 mouse islets): diminished; also recorded: decreased
effect on R-JAG-mediated increases in IRS2 levels (C57/BL6 mouse islets; C57/BL6 mouse islets): prevented; also recorded: completely abrogated

Exendin 9-39
NICD nuclear localization with GLP-1 (50 nM) in conjunction with the GLP-1R antagonist (Notch-1 (NICD) [1]; RIN cells, antagonist 500 nM): equivalent to glucose treatment alone

Exendin-4 [Ex-4]
insulin release, R-JAG and Ex-4 together vs either alone (RIN 1046-38 β-cells; RIN cells): greater that either alone
total intracellular insulin (RIN 1046-38 β-cells; RIN cells): increased
insulin release into the medium (RIN 1046-38 β-cells; RIN cells): acutely increased
NICD translocation to islet cell nuclei (Notch-1 (NICD) [2]): caused NICD translocation to nuclei of practically all islet cells; also recorded: increased NICD in all islet cells
increase in transcriptional activation of the UAS promoter (cleavage of Notch ΔE-GVP) (γ-secretase; RIN cells transfected with Notch ΔE-GVP and MH100): at least 20 fold
[3H]thymidine uptake, increase above glucose treatment (RIN cells [3]): increased
PDX-1 levels (C57/BL6 mouse islets): increased

R-JAG: Jagged-related peptide, Notch receptor binding fragment, CDDYYYGFGCNKFGRPRDD (SEQ ID NO:1)
trypan blue exclusion (cell death) (RIN 1046-38 β-cells; RIN cells treated with R-JAG): continued to exclude trypan blue
insulin secretion, replenishment every two hours vs single treatment (RIN 1046-38 β-cells; RIN cells, 6 h): greater effect
insulin release, R-JAG and Ex-4 together vs either alone (RIN 1046-38 β-cells; RIN cells): greater that either alone
total intracellular insulin (RIN 1046-38 β-cells; RIN cells): significant increase
insulin release into the medium (RIN 1046-38 β-cells; RIN cells): elevated insulin release into the medium after 2.5 h had elapsed
PDX-1 levels (RIN cells [4]): increased
IRS2 and insulin mRNA with replenishing every 2 h (RIN cells [4]; RT-PCR): sustained elevations
IRS-2 mRNA (RIN cells [4]; RT-PCR): increased
insulin mRNA levels (RIN cells [4]; RT-PCR): increased
time course of IRS2 and insulin mRNA after single treatment (RIN cells [4]; RT-PCR 27 cycles, normalized to GAPDH): diminished after 8 h
IRS-2 protein levels (RIN cells [4]; immunoblot): increased
total Notch1 levels (RIN cells [4]; immunoblot): increased
intra-cellular insulin (Rat islets; R-JAG 10 μM, glucose 6 mM): increase
IRS-2 transcription (Rat islets; over 2 and 6 hours): increases
PDX-1 transcription (Rat islets; over 2 and 6 hours): increases
insulin transcription (Rat islets; over 2 and 6 hours): increases
[3H]thymidine uptake, increase above glucose treatment (RIN cells [3]): 30%
PDX-1 levels (C57/BL6 mouse islets): increased
increase in IRS-2 protein levels (C57/BL6 mouse islets; mouse islets of Langerhans): 1.5 fold

insulin
nuclear NICD / NICD translocation (Notch-1 (NICD) [1]; RIN cells treated with secretagogues): equivalent to control samples

scrambled Jagged peptide: scrambled control peptide without agonist activity, RCGPDCFDNYGRYKYCF (SEQ ID NO:3)
[3H]thymidine uptake, increase above glucose treatment (RIN cells [3]): no effect
